Data reported in ChEMBL document CHEMBL1152405, “Bis-anthracenyl isoxazolyl amides have enhanced anticancer activity” (Bioorg Med Chem Lett, 2009).

What was measured:
Format in all cases: functional
[1] = system: NCI-H460; test: Growth inhibition of human NCI-H460 cells at 10 uM after 24 hrs by MTT assay relative to control; parameters: scale not given: the % may be the effect or the level left
[2] = system: HT-29; test: Growth inhibition of human HT-29 cells at 10 uM after 24 hrs by MTT assay relative to control; parameters: scale not given: the % may be the effect or the level left
[3] = system: KM12; test: Growth inhibition of human KM12 cells at 10 uM after 24 hrs by MTT assay relative to control; parameters: scale not given: the % may be the effect or the level left
[4] = system: SW-620; test: Growth inhibition of human SW620 cells at 10 uM after 24 hrs by MTT assay relative to control; parameters: scale not given: the % may be the effect or the level left
[5] = system: MCF7; test: Growth inhibition of human MCF7 cells at 10 uM after 24 hrs by MTT assay relative to control; parameters: scale not given: the % may be the effect or the level left
[6] = system: MDA-MB-231; test: Growth inhibition of human MDA-MB-231 cells at 10 uM after 24 hrs by MTT assay relative to control; parameters: scale not given: the % may be the effect or the level left
[7] = system: LOX IMVI; test: Growth inhibition of human LOXIMVI cells at 10 uM after 24 hrs by MTT assay relative to control; parameters: scale not given: the % may be the effect or the level left
[8] = system: SK-MEL-2; test: Growth inhibition of human SK-MEL-2 cells at 10 uM after 24 hrs by MTT assay relative to control; parameters: scale not given: the % may be the effect or the level left
[9] = system: SF-295; test: Growth inhibition of human SF295 cells at 10 uM after 24 hrs by MTT assay relative to control; parameters: scale not given: the % may be the effect or the level left
[10] = system: K562; test: Growth inhibition of human K562 cells after 24 hrs by MTT assay; conditions: K562, 24 h
[11] = system: HOP-92; test: Growth inhibition of human HOP92 cells after 24 hrs by MTT assay; conditions: HOP-92, 24 h
[12] = system: SK-MEL-2; test: Growth inhibition of human SK-MEL-2 cells after 24 hrs by MTT assay; conditions: SK-MEL-2, 24 h
[13] = system: SN12C; test: Growth inhibition of human SN12C cells after 24 hrs by MTT assay
[14] = Growth inhibition of human Hs 578T cells after 24 hrs by MTT assay
[15] = read-out: LC50 (the source's name)
[16] = read-out: pLC50 (the source's name) (converted)

Cc1onc(-c2c3ccccc3c(Cl)c3ccccc23)c1C(=O)Nc1cc(C(=O)NCCCN(C)CCCNC(=O)c2cc(NC(=O)c3c(-c4c5ccccc5c(Cl)c5ccccc45)noc3C)cn2C)n(C)c1
Activity [1]: -100%
Activity [2]: -91.6%
Activity [3]: -100%
Activity [4]: -100%
Activity [5]: -100%
Activity [6]: -100%
Activity [7]: -100%
Activity [8]: -77.54%
Activity [9]: -75.66%
TGI [10]: 2.19 µM
GI50 ([10]; read-out: GI50): 0.822 µM
CC50 [10, 15]: 5.14 µM
GI50 ([10]; read-out: pGI50 (converted)): 0.813 µM
CC50 [10, 16]: 5.13 µM
TGI [11]: 2.48 µM
GI50 ([11]; read-out: GI50): 1.22 µM
CC50 [11, 15]: 5.03 µM
GI50 ([11]; read-out: pGI50 (converted)): 1.23 µM
CC50 [11, 16]: 5.01 µM
TGI [12]: 4.1 µM
GI50 ([12]; read-out: GI50): 2.08 µM
GI50 ([12]; read-out: pGI50 (converted)): 2.09 µM
TGI [13]: 3.14 µM
GI50 ([13]; read-out: GI50): 1.65 µM
GI50 ([13]; read-out: pGI50 (converted)): 1.66 µM
TGI [14]: 2.94 µM
GI50 ([14]; read-out: GI50): 1.15 µM
GI50 ([14]; read-out: pGI50 (converted)): 1.15 µM
